Experimental data as given in patent US6605619B1, “Nitroxides as protectors against oxidatives stress” (The United States of America as represented by the …, priority 1992, dated 2003).

What was measured:
[1] = test system: Chinese hamster V79 cells; assay: Protection of cells exposed to H2O2 under hypoxic conditions; type: cell-based; details: 600 μM H2O2, 1 h, 37° C.
Description: Some studies required exposure to H2O2 under hypoxic conditions. For these studies, cells dispersed in 1.8 ml of medium were plated into specially designed glass flasks (Russo et al, Radiat. Res., 103, 232-239, 1985). The flasks were sealed with soft rubber stoppers, and 19-gauge needles were pushed through to act as entrance and exit ports for a humidified gas mixture of 95% nitrogen/5% CO2 (Matheson Gas Products). […] Stoppered flasks were connected in series and mounted on a reciprocating platform and gassed at 37° C. for 45 min. […] After 45 min of gassing, the hypoxic H2O2 solution was added to the cell monolayer culture. The cells were exposed to H2O2 for 1 h under hypoxic conditions. N2 gas flow was maintained during the H2O2 exposure. In parallel flasks, DF and CHD were added as described above, and were present during the entire gassing procedure. Following treatment, cell survival was assessed as described above.

[2] = test system: Chinese hamster V79 cells; assay: Protection of cells exposed to HX/XO, clonogenic survival; type: cell-based; details: 0.05 U/ml XO + 0.5 mM HX, 37° C.; 5 mM nitroxide; 100 U/ml catalase; SOD; 500 μM DF preincubated 2 h
Description: Chinese hamster V79 cells were grown in F12 medium supplemented with 10% fetal calf serum, penicillin, and streptomycin. Survival was assessed in all studies by the clonogenic assay. The plating efficiency range between 80-90%. Stock cultures of exponentially growing cells were trypsinized, rinsed, and plated (5×10^5 cells/dish) into a number of 100 mm petri dishes and incubated 16 h at 37° C. prior to experimental protocols. Cells were exposed for 1 h at 37° C. to either 0.5 mM hypoxanthine (HX)+0.05 U/ml of xanthine oxidase (XO) for varying lengths of time, or to H2O2 at different concentrations. To assess possible modulation in cytotoxicity, catalase, 100 U/ml; SOD, 100 μg/ml; DF, 500 μM; and 5 mM of each of the nitroxides from Table 1 were added to parallel cultures. CHD was prepared in a stock solution in ethanol and diluted into medium such that the final concentration was 5 mM. […] TEMPOL is water soluble and was prepared directly in tissue culture medium. […] DF was added either 2 h prior to or during treatment while the other agents were present only during HX/XO or H2O2 treatment. Following treatment, cells were rinsed, trypsinized, counted, and plated for macroscopic colony formation. For each dose determination cells were plated in triplicate and the experiments were repeated a minimum of two times. Plates were incubated 7 days, after which colonies were fixed with methanol/acetic acid, stained with crystal violet, and counted. Colonies containing >50 cells were scored. Error bars represent S.D. of the mean and are shown when larger than the symbol.

**Q.** Which “protection against H2O2 cytotoxicity under hypoxic conditions” value [1] does the source give for `CC1(C)CN([O])C2(CCCCC2)O1` [CHD, 2-spirocyclohexane-5,5-dimethyl-3-oxazolidinoxyl] here?
**A.** protects

**Q.** What about the “cell survival / protection from HX/XO” value [2] of the same compound?
**A.** fully protected
